In the NIST ThermoML archive (doi:10.1021/je100131c):
Numbers after ± are expanded uncertainties.

What was measured:
[1] = Adiabatic calorimetry
[2] = molar heat capacity at constant pressure; settings: 101.33 kPa

CCCn1cc[n+](C)c1.N[C@@H](CCC(=O)O)C(=O)[O-]
Settings | Glass transition temperature [°C]
[1] | -33 ± 3

[2]
Settings | molar heat capacity at constant pressure [J/K/mol]
86.07 K, Glass | 150.25 ± 1.4
88.05 K, Glass | 152.63 ± 1.4
90.01 K, Glass | 154.9 ± 1.4
91.97 K, Glass | 157.5 ± 1.4
93.95 K, Glass | 159.49 ± 1.4
95.92 K, Glass | 162.14 ± 1.4
97.89 K, Glass | 164.13 ± 1.5
99.85 K, Glass | 166.66 ± 1.5
102.59 K, Glass | 169.25 ± 1.5
105.33 K, Glass | 173.04 ± 1.5
107.28 K, Glass | 175.8 ± 1.5
109.24 K, Glass | 177.98 ± 1.5
111.23 K, Glass | 179.21 ± 1.5
113.2 K, Glass | 181.07 ± 1.5
115.14 K, Glass | 183.75 ± 1.5
117.1 K, Glass | 185.58 ± 1.5
119.09 K, Glass | 186.96 ± 1.6
121.06 K, Glass | 188.82 ± 1.6
123 K, Glass | 191.13 ± 1.6
124.97 K, Glass | 193.29 ± 1.6
126.97 K, Glass | 194.36 ± 1.6
128.94 K, Glass | 196.26 ± 1.6
130.9 K, Glass | 199.43 ± 1.6
132.84 K, Glass | 200.78 ± 1.6
134.79 K, Glass | 203.07 ± 1.6
136.78 K, Glass | 204.43 ± 1.6
138.75 K, Glass | 206.24 ± 1.6
140.7 K, Glass | 207.69 ± 1.6
142.65 K, Glass | 208.89 ± 1.6
144.61 K, Glass | 211.05 ± 1.6
146.6 K, Glass | 212.89 ± 1.6
148.57 K, Glass | 215.15 ± 1.7
150.53 K, Glass | 216.91 ± 1.7
153.04 K, Glass | 219.16 ± 1.7
155.56 K, Glass | 221.42 ± 1.7
157.53 K, Glass | 223.77 ± 1.7
159.49 K, Glass | 225.64 ± 1.7
161.44 K, Glass | 227 ± 1.7
163.38 K, Glass | 228.24 ± 1.7
165.3 K, Glass | 230.3 ± 1.7
167.27 K, Glass | 232.18 ± 1.7
169.28 K, Glass | 234.1 ± 1.7
171.28 K, Glass | 236.74 ± 1.8
173.27 K, Glass | 237.97 ± 1.8
175.25 K, Glass | 240.31 ± 1.8
177.21 K, Glass | 242.87 ± 1.8
179.17 K, Glass | 243.7 ± 1.8
181.11 K, Glass | 245.51 ± 1.8
183.05 K, Glass | 248.04 ± 1.8
185.03 K, Glass | 250.2 ± 1.8
187.05 K, Glass | 252.7 ± 1.8
189.06 K, Glass | 255.28 ± 1.8
191.06 K, Glass | 257.14 ± 1.8
193.05 K, Glass | 259.68 ± 1.8
195.03 K, Glass | 262.63 ± 1.9
197.01 K, Glass | 264.18 ± 1.9
198.97 K, Glass | 266.54 ± 1.9
200.93 K, Glass | 268.59 ± 1.9
203.31 K, Glass | 271.02 ± 1.9
205.67 K, Glass | 273.69 ± 1.9
207.65 K, Glass | 277.76 ± 1.9
209.69 K, Glass | 281.69 ± 1.9
211.73 K, Glass | 283.31 ± 1.9
213.76 K, Glass | 284.6 ± 1.9
215.8 K, Glass | 286.92 ± 1.9
217.82 K, Glass | 290.11 ± 2
219.85 K, Glass | 294.21 ± 2
221.88 K, Glass | 296.62 ± 2
223.91 K, Glass | 297.46 ± 2
225.94 K, Glass | 299.66 ± 2
227.97 K, Glass | 300.73 ± 2
229.99 K, Glass | 302.48 ± 2
231.96 K, Glass | 310.06 ± 2
234 K, Glass | 323.45 ± 2.1
236.07 K, Glass | 333.04 ± 2.1
238.02 K, Glass | 358.09 ± 2.3
239.86 K, Glass | 407.73 ± 2.5
242.01 K, Glass | 462.82 ± 2.7
244.24 K, Liquid | 471 ± 2.7
246.18 K, Liquid | 472.35 ± 2.7
248.12 K, Liquid | 473.61 ± 2.7
250.04 K, Liquid | 475.54 ± 2.7
251.97 K, Liquid | 476.41 ± 2.7
253.9 K, Liquid | 477.37 ± 2.7
255.89 K, Liquid | 478.45 ± 2.7
257.87 K, Liquid | 480.19 ± 2.7
259.86 K, Liquid | 481.42 ± 2.7
261.91 K, Liquid | 483.73 ± 2.7
263.96 K, Liquid | 485.28 ± 2.7
266 K, Liquid | 486.86 ± 2.8
268.04 K, Liquid | 487.89 ± 2.8
270.07 K, Liquid | 489.67 ± 2.8
272.09 K, Liquid | 491.51 ± 2.8
274.12 K, Liquid | 493.23 ± 2.8
276.13 K, Liquid | 495.7 ± 2.8
278.15 K, Liquid | 497.67 ± 2.8
280.16 K, Liquid | 498.94 ± 2.8
282.16 K, Liquid | 501.05 ± 2.8
284.17 K, Liquid | 503.38 ± 2.8
286.16 K, Liquid | 505.39 ± 2.8
288.12 K, Liquid | 507.35 ± 2.8
290.06 K, Liquid | 509.26 ± 2.8
292.08 K, Liquid | 511.23 ± 2.8
294.05 K, Liquid | 513.1 ± 2.9
296.01 K, Liquid | 514.91 ± 2.9
297.97 K, Liquid | 516.83 ± 2.9
299.93 K, Liquid | 518.67 ± 2.9
301.88 K, Liquid | 520.07 ± 2.9
303.82 K, Liquid | 521.96 ± 2.9
305.77 K, Liquid | 523.25 ± 2.9
307.7 K, Liquid | 524.77 ± 2.9
309.64 K, Liquid | 526.25 ± 2.9
311.57 K, Liquid | 527.31 ± 2.9
313.5 K, Liquid | 528.82 ± 2.9
315.43 K, Liquid | 530.52 ± 2.9
317.41 K, Liquid | 531.97 ± 2.9
319.47 K, Liquid | 533.47 ± 2.9
321.52 K, Liquid | 534.99 ± 2.9
323.57 K, Liquid | 536.53 ± 3
325.61 K, Liquid | 538.93 ± 3
327.65 K, Liquid | 539.74 ± 3
329.68 K, Liquid | 541.83 ± 3
331.71 K, Liquid | 543.17 ± 3
333.73 K, Liquid | 544.98 ± 3
335.75 K, Liquid | 546.87 ± 3
337.76 K, Liquid | 549.25 ± 3
339.77 K, Liquid | 550.76 ± 3
341.77 K, Liquid | 553.01 ± 3
343.77 K, Liquid | 554.52 ± 3
345.76 K, Liquid | 557 ± 3
347.75 K, Liquid | 559.26 ± 3
349.74 K, Liquid | 561.22 ± 3
351.73 K, Liquid | 563.15 ± 3
353.72 K, Liquid | 565.12 ± 3.1
355.7 K, Liquid | 566.91 ± 3.1
357.68 K, Liquid | 568.06 ± 3.1
